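Exposure lasted 48 hours, with cells grown in 96-well plates and compounds tested at five concentrations. The concentration for 50% growth inhibition is given as GI50. TGI: total growth inhibition.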
What was measured:
Assay in all cases: NCI tumour cell line growth inhibition, 48 h
786-0 renal = tested on: 786-0 renal
A498 renal = tested on: A498 renal
A549 NSCLC = tested on: A549 NSCLC
ACHN renal = tested on: ACHN renal
BT-549 breast = tested on: BT-549 breast
CAKI-1 renal = tested on: CAKI-1 renal
CCRF-CEM leukemia = tested on: CCRF-CEM leukemia
COLO 205 colon = tested on: COLO 205 colon
DU-145 prostate = tested on: DU-145 prostate
EKVX NSCLC = tested on: EKVX NSCLC
HCC-2998 colon = tested on: HCC-2998 colon
HCT-116 colon = tested on: HCT-116 colon
HCT-15 colon = tested on: HCT-15 colon
HL-60(TB) leukemia = tested on: HL-60(TB) leukemia
HOP-62 NSCLC = tested on: HOP-62 NSCLC
HOP-92 NSCLC = tested on: HOP-92 NSCLC
HS 578T breast = tested on: HS 578T breast
HT29 colon = tested on: HT29 colon
IGROV1 ovarian = tested on: IGROV1 ovarian
K-562 leukemia = tested on: K-562 leukemia
KM12 colon = tested on: KM12 colon
LOX IMVI melanoma = tested on: LOX IMVI melanoma
M14 melanoma = tested on: M14 melanoma
MALME-3M melanoma = tested on: MALME-3M melanoma
MCF7 breast = tested on: MCF7 breast
MDA-MB-231 breast = tested on: MDA-MB-231 breast
MDA-MB-435 = tested on: MDA-MB-435
MOLT-4 leukemia = tested on: MOLT-4 leukemia
NCI-H226 lung = tested on: NCI-H226 lung
NCI-H23 lung = tested on: NCI-H23 lung
NCI-H460 lung = tested on: NCI-H460 lung
NCI-H522 lung = tested on: NCI-H522 lung
NCI/ADR-RES ovarian = tested on: NCI/ADR-RES ovarian
OVCAR-3 ovarian = tested on: OVCAR-3 ovarian
OVCAR-4 ovarian = tested on: OVCAR-4 ovarian
OVCAR-5 ovarian = tested on: OVCAR-5 ovarian
OVCAR-8 ovarian = tested on: OVCAR-8 ovarian
PC-3 prostate = tested on: PC-3 prostate
RXF 393 renal = tested on: RXF 393 renal
SF-268 CNS = tested on: SF-268 CNS
SF-295 CNS = tested on: SF-295 CNS
SF-539 CNS = tested on: SF-539 CNS
SK-MEL-2 melanoma = tested on: SK-MEL-2 melanoma
SK-MEL-28 melanoma = tested on: SK-MEL-28 melanoma
SK-MEL-5 melanoma = tested on: SK-MEL-5 melanoma
SK-OV-3 ovarian = tested on: SK-OV-3 ovarian
SN12C renal = tested on: SN12C renal
SNB-19 CNS = tested on: SNB-19 CNS
SNB-75 CNS = tested on: SNB-75 CNS
SR leukemia = tested on: SR leukemia
SW-620 colon = tested on: SW-620 colon
T-47D breast = tested on: T-47D breast
TK-10 renal = tested on: TK-10 renal
U251 CNS = tested on: U251 CNS
UACC-257 melanoma = tested on: UACC-257 melanoma
UACC-62 melanoma = tested on: UACC-62 melanoma
UO-31 renal = tested on: UO-31 renal

COc1cc2nc(-c3ccc(Cl)cc3)cc(OCCCN3CCC(O)CC3)c2cc1OC
GI50 (786-0 renal): 3.31 µM | TGI (786-0 renal): 14.9 µM | GI50 (A498 renal): 1530 nM | TGI (A498 renal): 3.83 µM | GI50 (A549 NSCLC): 2200 nM | TGI (A549 NSCLC): 14.8 µM | GI50 (ACHN renal): 2430 nM | TGI (ACHN renal): 10.4 µM | GI50 (BT-549 breast): 2790 nM | TGI (BT-549 breast): 13.3 µM | GI50 (CAKI-1 renal): 416 nM | TGI (CAKI-1 renal): 5.24 µM | GI50 (CCRF-CEM leukemia): 2650 nM | TGI (CCRF-CEM leukemia): 10.4 µM | GI50 (COLO 205 colon): 532 nM | TGI (COLO 205 colon): 4.11 µM | GI50 (DU-145 prostate): 2780 nM | TGI (DU-145 prostate): 25.9 µM | GI50 (EKVX NSCLC): 1330 nM | TGI (EKVX NSCLC): 12.9 µM | GI50 (HCC-2998 colon): 1950 nM | TGI (HCC-2998 colon): 5.93 µM | GI50 (HCT-116 colon): 1440 nM | TGI (HCT-116 colon): 11.3 µM | GI50 (HCT-15 colon): 763 nM | TGI (HCT-15 colon): 12.5 µM | GI50 (HL-60(TB) leukemia): 4.27 µM | TGI (HL-60(TB) leukemia): 18.7 µM | GI50 (HOP-62 NSCLC): 1980 nM | TGI (HOP-62 NSCLC): 10.4 µM | GI50 (HOP-92 NSCLC): 1250 nM | TGI (HOP-92 NSCLC): 6.79 µM | GI50 (HS 578T breast): 1910 nM | TGI (HS 578T breast): 6.65 µM | GI50 (HT29 colon): 700 nM | TGI (HT29 colon): 3.81 µM | GI50 (IGROV1 ovarian): 923 nM | TGI (IGROV1 ovarian): 14.9 µM | GI50 (K-562 leukemia): 1630 nM | TGI (K-562 leukemia): 6.75 µM | GI50 (KM12 colon): 3.13 µM | TGI (KM12 colon): 13.6 µM | GI50 (LOX IMVI melanoma): 227 nM | TGI (LOX IMVI melanoma): 589 nM | GI50 (M14 melanoma): 591 nM | TGI (M14 melanoma): 2210 nM | GI50 (MALME-3M melanoma): 1890 nM | TGI (MALME-3M melanoma): 4.95 µM | GI50 (MCF7 breast): 1600 nM | TGI (MCF7 breast): 3.79 µM | GI50 (MDA-MB-231 breast): 665 nM | TGI (MDA-MB-231 breast): 3.52 µM | GI50 (MDA-MB-435): 2050 nM | TGI (MDA-MB-435): 5.2 µM | GI50 (MOLT-4 leukemia): 1800 nM | TGI (MOLT-4 leukemia): 4.54 µM | GI50 (NCI-H226 lung): 1390 nM | TGI (NCI-H226 lung): 3.62 µM | GI50 (NCI-H23 lung): 2830 nM | TGI (NCI-H23 lung): 15 µM | GI50 (NCI-H460 lung): 955 nM | TGI (NCI-H460 lung): 14 µM | GI50 (NCI-H522 lung): 2190 nM | TGI (NCI-H522 lung): 5.77 µM | GI50 (NCI/ADR-RES ovarian): 925 nM | TGI (NCI/ADR-RES ovarian): 14.8 µM | GI50 (OVCAR-3 ovarian): 3.24 µM | TGI (OVCAR-3 ovarian): 28.3 µM | GI50 (OVCAR-4 ovarian): 4.34 µM | TGI (OVCAR-4 ovarian): > 100 µM | GI50 (OVCAR-5 ovarian): 1160 nM | TGI (OVCAR-5 ovarian): 15.6 µM | GI50 (OVCAR-8 ovarian): 2000 nM | TGI (OVCAR-8 ovarian): 20.7 µM | GI50 (PC-3 prostate): 2020 nM | TGI (PC-3 prostate): 12.7 µM | GI50 (RXF 393 renal): 1220 nM | TGI (RXF 393 renal): 4.07 µM | GI50 (SF-268 CNS): 3.36 µM | TGI (SF-268 CNS): 19.6 µM | GI50 (SF-295 CNS): 1660 nM | TGI (SF-295 CNS): 3.58 µM | GI50 (SF-539 CNS): 2280 nM | TGI (SF-539 CNS): 6.78 µM | GI50 (SK-MEL-2 melanoma): 2070 nM | TGI (SK-MEL-2 melanoma): 5.05 µM | GI50 (SK-MEL-28 melanoma): 1490 nM | TGI (SK-MEL-28 melanoma): 3.28 µM | GI50 (SK-MEL-5 melanoma): 1270 nM | TGI (SK-MEL-5 melanoma): 2560 nM | GI50 (SK-OV-3 ovarian): 3.17 µM | TGI (SK-OV-3 ovarian): 21.8 µM | GI50 (SN12C renal): 1260 nM | TGI (SN12C renal): 22.1 µM | GI50 (SNB-19 CNS): 3.19 µM | TGI (SNB-19 CNS): 16.9 µM | GI50 (SNB-75 CNS): 1760 nM | TGI (SNB-75 CNS): 5.43 µM | GI50 (SR leukemia): 373 nM | TGI (SR leukemia): 3.42 µM | GI50 (SW-620 colon): 3.05 µM | TGI (SW-620 colon): 13 µM | GI50 (T-47D breast): 2260 nM | TGI (T-47D breast): 12 µM | GI50 (TK-10 renal): 2140 nM | TGI (TK-10 renal): 6.75 µM | GI50 (U251 CNS): 2810 nM | TGI (U251 CNS): 22.5 µM | GI50 (UACC-257 melanoma): 2060 nM | TGI (UACC-257 melanoma): 4.56 µM | GI50 (UACC-62 melanoma): 1900 nM | TGI (UACC-62 melanoma): 4.04 µM | GI50 (UO-31 renal): 1720 nM | TGI (UO-31 renal): 5.97 µM

Reference: PubChem BioAssay (NCI)
